Assay results: PubChem BioAssay AID504568 (NMMLSC, 2011)
Activity calls are given as the source filed them.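 The calls were made as follows: active = binding readouts below 60% of the midpoint between blocked and unblocked controls, with summed weighted score above 1; inactive = the rest.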

Test system: 2C TCR mouse CD8+ T cells, vesicle binding, flow cytometry
Assay: modulators of T cell-vesicle binding via LFA-1, confirmation, powder samples, single concentration, mouse 2C TCR, flow cytometry (AID 504568);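 also: lower values mean less vesicle binding and point to an inhibitor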;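 as to double-positive events (T cell-vesicle binding): the gate for binding is set so anti-LFA-1 blocked control wells show 10% double positives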
Conditions: stronger effect = lower value; for mean fluorescence percent response: measured here: CD8+ cell vesicle fluorescence mean

Row | Structure (SMILES) | double-positive events (T cell-vesicle binding) | mean fluorescence percent response [%]
1 | CC(=O)Nc1ccc(S(=O)(=O)NC2CCSc3ccccc32)cc1 (configuration not stated) | 23.2% (inactive) | 120
2 | CC(=O)c1ccc(-c2csc(N3CCC(C(N)=O)CC3)n2)cc1 | 26.5% (inactive) | 153
3 | CCOC(=O)c1c(N2C(=O)CC(Sc3ccccc3C(=O)O)C2=O)sc2c1CCCC2 (configuration not stated) | 9.25% | 59.9
4 | COc1ccc(/C=C2\SC(=S)N(CCC(=O)N3CCOCC3)C2=O)cc1 | 22.1% | 102
5 | CCCc1nnc(NC(=O)c2ccc(S(=O)(=O)N(C)c3ccccc3OC)cc2)s1 | 26.1% (inactive) | 131
6 | Cc1ccc(S(=O)(=O)N2CCN(S(=O)(=O)N(C)C)CC2)c(C)c1 | 24.7% | 139
7 | CCOCC(=O)Nc1ccc(S(=O)(=O)N2CCC(c3nc4ccccc4[nH]3)CC2)cc1 | 16.4% | 97.1
8 | O=C(O)C1CCC(Cn2c(SCc3cc(=O)n4cc(Cl)ccc4n3)nc3ccsc3c2=O)CC1 (configuration not stated) | 19.5% | 128
9 | NC(=O)C1CCN(c2nc(-c3cc4ccccc4o3)cs2)CC1 | 26.2% (inactive) | 140
10 | CCCCOc1ccc(C(=O)NCC(=O)N2CCN(C(=O)c3ccco3)CC2)cc1 | 25.2% | 133
11 | CCOC(=O)N1CCN(C(=O)c2ccc(CS(=O)Cc3ccc(C)cc3)o2)CC1 (configuration not stated) | 26.5% (inactive) | 146
